Experimental findings from patent US20050267166A1, “Continuous dosing regimen” (priority 2004, published 2005) are described below.

The subject of experiment [1] is M5076 transplantable murine reticulum cell sarcoma. As to conditions: for antitumor activity in the M5076 model: in words; for ILS: comparator drugs, dose not given.
For a further experiment, the system named is C26 colon tumors. The experiment can be described thus: C26 colon tumors grown in the flank of CDF-1 mice. The class given is in vivo. The note with it: comparator, regimen not given.
Experiment [2] deals with NCI-H460 human non-small cell lung carcinoma. Nature of the experiment: NCI-H460 xenograft model. The note with it: in words. The class given is in vivo. From the text: NCI-H460 is a human non-small cell lung carcinoma derived cell line. It is MDR negative, has wild type p53, and contains an oncogenic K-ras mutation.
The subject of experiment [3] is HCT-15 human colon carcinoma. The experiment can be described thus: HCT-15 human colon carcinoma xenografts. It counts as in vivo. As to conditions: in words. From the text: HCT-15 is a human colon carcinoma derived cell line. It is MDR positive, and expresses both mutant p53 and oncogenic K-ras. The HCT-15 cell line has one of the highest levels of mdr-1/P-glycoprotein expression of cells from the NCI tumor cell line panel.
Effect of Cytotoxic Agents on the Growth of HCT-15 Human Colon Carcinoma Xenografts
Background: Xenograft models place foreign cells or tissue in a host animal.

In experiment [4] the target is biotinylated bovine brain tubulin.

`O=P1(N(CCCl)CCCl)NCCCO1` (stereo not shown) [cyclophosphamide]: the “antitumor activity in the M5076 model” value in experiment [1] is reported as “sensitive”.
The term ILS denotes how much longer treated animals lived than controls. A lower ILS goes with little gain in survival. For the compound `COc1cccc2c1C(=O)c1c(O)c3c(c(O)c1C2=O)C[C@@](O)(C(=O)CO)C[C@@H]3O[C@H]1C[C@H](N)[C@H](O)[C@H](C)O1` [doxorubicin], in experiment [1], the ILS stood at 13% and the “antitumor activity in the M5076 model” value is recorded as “only marginally active”.
Consider `CC(=O)O[C@H]1C(=O)[C@@]2(C)[C@H]([C@H](OC(=O)c3ccccc3)[C@]3(O)C[C@H](OC(=O)[C@H](O)[C@@H](NC(=O)c4ccccc4)c4ccccc4)C(C)=C1C3(C)C)[C@]1(OC(C)=O)CO[C@@H]1C[C@@H]2O` [paclitaxel, reference compound], for which, in the experiment on C26 colon tumors, the “efficacy against C26 colon tumors” value is given as “not efficacious”. Besides, the “efficacy in the NCI-H460 xenograft model” value in experiment [2] was “lacked activity”. The “efficacy in HCT-15 xenografts” value in experiment [3] is recorded as “not efficacious”. In addition, the “antitumor activity in the M5076 model” value in experiment [1] is on record as “resistant”.
For orientation: Ki means the equilibrium dissociation constant of an inhibitor or competing ligand from its target. Higher therefore signals a looser hold on the target. Regarding `CC[C@]1(O)C[C@@H]2CN(CCc3c([nH]c4ccccc34)[C@@](C(=O)OC)(c3cc4c(cc3OC)N(C)[C@H]3[C@@](O)(C(=O)OC)[C@H](OC(C)=O)[C@]5(CC)C=CCN6CC[C@]43[C@@H]65)C2)C1` [vinblastine], the Ki in experiment [4] (competition of [3H]colchicine) was more than 100 µM. Further, the “displacement of [3H]colchicine from the colchicine site of tubulin β-subunits” value in experiment [4] (in words) was “do not displace”.
`CC[C@]1(O)C[C@H]2CN(CCc3c([nH]c4ccccc34)[C@@](C(=O)OC)(c3cc4c(cc3OC)N(C=O)[C@H]3[C@@](O)(C(=O)OC)[C@H](OC(C)=O)[C@]5(CC)C=CCN6CC[C@]43[C@@H]65)C2)C1` [vincristine, reference compound]: the “efficacy in the NCI-H460 xenograft model” value in experiment [2] is “lacked activity”. Besides, the “efficacy in HCT-15 xenografts” value in experiment [3] is “not efficacious”. Also, in experiment [1], the ILS was determined as 17% and the “antitumor activity in the M5076 model” value was “only marginally active”.
